Assay results taken from paper PMC9408963 (International Journal of Molecular Sciences, 2022).
Converted amounts (≈) assume the structure as drawn. “And” between values parts separate entries of the source, which are not always exact repeats. Identical values can stand only once. Counter-ions that a name gives are not always drawn. Like-named read-outs stand apart in the source and are kept apart here.

What was measured:
[1] = system: Xanthomonas oryzae pv. oryzae (Xoo); assay: microbe, parasite or virus in culture; type: cell-based; details: for EC50 / inhibition at 20 µg/mL / inhibition at 100 µg/mL: Xanthomonas oryzae; for EC50: read-out: EC50 for inhibition of Xoo growth; for inhibition at 20 µg/mL / inhibition at 100 µg/mL: read-out: Inhibition (%) of Xoo growth
[2] = system: Xanthomonas oryzae pv. oryzae (Xoo); assay: microbe, parasite or virus in culture; type: cell-based; details: for MIC: Xanthomonas oryzae
in vitro = details: rat
[3] = system: human non-small cell lung cancer cell line (A549)
XooFtsZ [4] = type: biochemical, Xanthomonas oryzae pv. oryzae; details: TEM, 20 μM XooFtsZ, 100 and 200 μM compound
[5] = system: rice bacterial leaf blight infected by Xoo; type: in vivo; parameters: curative control efficiency against rice bacterial leaf blight: dose or concentration left out as unconfirmed
XooFtsZ [6] = type: binding, Xanthomonas oryzae pv. oryzae; details: pH 7.4
Xoo cells = type: cell-based, Xanthomonas oryzae pv. oryzae; parameters: average Xoo cell length: unit not given here; details: TEM
[7] = target: T1, recombinant XooFtsZ GTPase (Xanthomonas oryzae pv. oryzae, UniProt A0ACG7R862); assay: biochemical; details: for inhibition at 100 µM / inhibition at 200 µM: read-out: Inhibition Rate (%) of XooFtsZ GTPase activity
rice plants = details: in vivo
[8] = target: T1, recombinant XooFtsZ GTPase; details: read-out: IC50 XooFtsZ GTPase activity; cited from earlier work
[9] = system: rice bacterial leaf blight infected by Xoo; details: in vivo; cited from earlier work
[10] = read-out: MIC against Xoo, in vitro

COc1cc(C2c3cc4c(cc3C(O)C3COC(=O)C23)OCO4)cc(OC)c1OCC1CO1 (stereo not shown) [A1]
EC50 [1]: > 200 µg/mL
inhibition at 20 µg/mL [1]: 10.6 ± 0.9%
inhibition at 100 µg/mL [1]: 18.3 ± 2.15%
MIC [2, 10]: > 400 µg/mL

CCC(CC)C(=O)Oc1c(OC)cc(C2c3cc4c(cc3C(O)C3COC(=O)C23)OCO4)cc1OC (stereo not shown) [B1]
EC50 [1]: > 200 µg/mL
inhibition at 20 µg/mL [1]: 5.33 ± 1.13%
inhibition at 100 µg/mL [1]: 17.4 ± 6%
MIC [2, 10]: > 400 µg/mL

CCCCC(CC)C(=O)Oc1c(OC)cc(C2c3cc4c(cc3C(O)C3COC(=O)C23)OCO4)cc1OC (stereo not shown) [B2]
IC50 (in vitro): 60.8 µM
EC50 [1]: 153 ± 9.2 µg/mL (≈ 291 µM)
inhibition at 20 µg/mL [1]: 7.3 ± 2.2%
inhibition at 100 µg/mL [1]: 44.2 ± 3.2%
cytotoxicity (comparison) [3]: more cytotoxic than either DMEP or gefitinib
effect on XooFtsZ self-assembly (XooFtsZ [4]): fewer single-stranded protofilaments and an increase in disordered and disorganized protein aggregation
curative control efficiency against rice bacterial leaf blight ([5]; pot experiments): 54.9%
protective control efficiency against rice bacterial leaf blight ([5]; pot experiments): 48.4%
Stern–Volmer quenching constant Kq (XooFtsZ [6]; 10 μM XooFtsZ, 25 °C): 3.845 × 10^11 M^−1 S^−1
Stern–Volmer quenching constant Ksv (XooFtsZ [6]; 10 μM XooFtsZ, 25 °C): 3845 M⁻¹
average Xoo cell length (Xoo cells; 100 mg L^−1, 12 h): 4.03 ± 2.20
average Xoo cell length (Xoo cells; 100 mg L^−1, 24 h): 5.86 ± 3.23
IC50 [7]: 159 ± 16.7 µM
inhibition at 100 µM [7]: 48.6 ± 4.1%
inhibition at 200 µM [7]: 54.8 ± 5.2%
phytotoxicity to rice plants (rice plants): non-toxic

COc1cc(C2c3cc4c(cc3C(O)C3COC(=O)C23)OCO4)cc(OC)c1OS(=O)(=O)c1ccc(C)cc1 (stereo not shown) [B3]
EC50 [1]: > 200 µg/mL
inhibition at 20 µg/mL [1]: 4.33 ± 0.8%
inhibition at 100 µg/mL [1]: 10.2 ± 1.2%
MIC [2, 10]: > 400 µg/mL

S=c1[nH]nc(NCNc2n[nH]c(=S)s2)s1 [BT, bismerthiazol]
Inhibition (%) of Xoo growth ([1]; 20 mg L^−1): 30.0 ± 2.20%
Inhibition (%) of Xoo growth ([1]; 100 mg L^−1): 92.7 ± 1.70%
EC50 for inhibition of Xoo growth ([1]; in vitro): 36.3 ± 2.50 µg/mL
MIC against Xoo ([2]; in vitro): 50 µg/mL (≈ 180 µM)

COc1ccc2cc3[n+](cc2c1OC)CCc1cc2c(cc1-3)OCO2 [Berberine, Berberine hydrochloride]
Stern–Volmer quenching constant Kq (XooFtsZ [6]; 10 μM XooFtsZ, 25 °C): 1.789 × 10^12 M^−1 S^−1
Stern–Volmer quenching constant Ksv (XooFtsZ [6]; 10 μM XooFtsZ, 25 °C): 17890 M⁻¹
IC50 [7]: 225 ± 18.5 µM
inhibition at 100 µM [7]: 34.1 ± 2.6%
inhibition at 200 µM [7]: 48.7 ± 4.1%

COc1cc(C2c3cc4c(cc3C(O)C3COC(=O)C23)OCO4)cc(OC)c1O (stereo not shown) [DMEOP, 4′-demethylpodophyllotoxin]
EC50 for inhibition of Xoo growth [1]: >200 µg/mL
Stern–Volmer quenching constant Kq (XooFtsZ [6]): 1.757 × 10^11 M^−1 S^−1
Stern–Volmer quenching constant Ksv (XooFtsZ [6]): 1757 M⁻¹
MIC against Xoo [2]: >400 µg/mL

COc1cc([C@@H]2c3cc4c(cc3[C@@H](O)[C@H]3COC(=O)[C@H]23)OCO4)cc(OC)c1O [DMEP, 4′-demethylepipodophyllotoxin]
EC50 for inhibition of Xoo growth [1]: 39.7 µg/mL and 38.7 µg/mL
IC50 [8]: 279 µM and 278 µM
Stern–Volmer quenching constant Kq (XooFtsZ [6]): 7.593 × 10^11 M^−1 S^−1
Stern–Volmer quenching constant Ksv (XooFtsZ [6]): 7593 M⁻¹
curative control efficiency against rice bacterial leaf blight [9]: 50.0%
protective control efficiency against rice bacterial leaf blight [9]: 46.8%
MIC against Xoo [2]: 50 µg/mL (≈ 125 µM)

COc1cc([C@@H]2c3cc4c(cc3C[C@H]3COC(=O)[C@@H]32)OCO4)cc(OC)c1OC [Deoxypodophyllotoxin]
EC50 [1]: > 200 µg/mL
inhibition at 20 µg/mL [1]: 12.2 ± 4.8%
inhibition at 100 µg/mL [1]: 10.3 ± 3.5%
Stern–Volmer quenching constant Kq (XooFtsZ [6]; 10 μM XooFtsZ, 25 °C): 2.276 × 10^11 M^−1 S^−1
Stern–Volmer quenching constant Ksv (XooFtsZ [6]; 10 μM XooFtsZ, 25 °C): 2276 M⁻¹
MIC [2, 10]: > 400 µg/mL

COc1cc([C@@H]2c3cc4c(cc3[C@@H](O[C@@H]3O[C@@H]5CO[C@@H](C)O[C@H]5[C@H](O)[C@H]3O)[C@H]3COC(=O)[C@H]23)OCO4)cc(OC)c1O [Etoposide]
EC50 [1]: > 200 µg/mL
inhibition at 100 µg/mL [1]: 18.8 ± 9.6%
Stern–Volmer quenching constant Kq (XooFtsZ [6]; 10 μM XooFtsZ, 25 °C): 2.396 × 10^11 M^−1 S^−1
Stern–Volmer quenching constant Ksv (XooFtsZ [6]; 10 μM XooFtsZ, 25 °C): 2396 M⁻¹
effect on Xoo cell morphology (Xoo cells; 100 mg L^−1, 24 h): induced cellular elongation
MIC [2, 10]: > 400 µg/mL

COc1cc([C@@H]2c3cc4c(cc3[C@H](O)[C@H]3COC(=O)[C@@H]23)OCO4)cc(OC)c1OC [Picropodophyllotoxin]
EC50 [1]: > 200 µg/mL
Stern–Volmer quenching constant Kq (XooFtsZ [6]): 3.603 × 10^11 M^−1 S^−1
Stern–Volmer quenching constant Ksv (XooFtsZ [6]): 3603 M⁻¹
MIC ([2]; read-out: MIC against Xoo): > 400 µg/mL

COc1cc([C@@H]2c3cc4c(cc3[C@H](O)[C@H]3COC(=O)[C@H]23)OCO4)cc(OC)c1OC [Podophyllotoxin]
EC50 [1]: > 200 µg/mL
Stern–Volmer quenching constant Kq (XooFtsZ [6]): 2.203 × 10^11 M^−1 S^−1
Stern–Volmer quenching constant Ksv (XooFtsZ [6]): 2203 M⁻¹
MIC ([2]; read-out: MIC against Xoo): > 400 µg/mL

Nc1nnc([S-])s1.Nc1nnc([S-])s1.[Cu+2] [TC, Thiodiazole copper]
curative control efficiency against rice bacterial leaf blight ([5]; in vivo): 31.2%
protective control efficiency against rice bacterial leaf blight ([5]; in vivo): 30.4%

COc1cc([C@@H]2c3cc4c(cc3[C@@H](O[C@@H]3O[C@@H]5CO[C@@H](c6cccs6)O[C@H]5[C@H](O)[C@H]3O)[C@H]3COC(=O)[C@H]23)OCO4)cc(OC)c1O [Teniposide]
EC50 [1]: > 200 µg/mL
inhibition at 100 µg/mL [1]: 20.3 ± 9.21%
Stern–Volmer quenching constant Kq (XooFtsZ [6]; 10 μM XooFtsZ, 25 °C): 2.920 × 10^11 M^−1 S^−1
Stern–Volmer quenching constant Ksv (XooFtsZ [6]; 10 μM XooFtsZ, 25 °C): 2920 M⁻¹
effect on Xoo cell morphology (Xoo cells; 100 mg L^−1, 24 h): induced cellular elongation
MIC [2, 10]: > 400 µg/mL
